Test results as given in patent US8815857B2 (Boehringer Ingelheim International GmbH, priority 2011, dated 2014).
Converted amounts (≈) assume the structure as drawn.

What was measured:
[1] = biological target: T1, Recombinant human soluble guanylate cyclase (sGC), alpha 1 / beta 1 subunits, heme-free (Homo sapiens, UniProt Q02108+Q02153); experiment: Molecular assay: cGMP formation by heme-free recombinant sGC (CisBio cGMP detection kit); format: biochemical; settings: 300 pM heme-free sGC, 37° C., 60 min, cGMP readout; read-out: EC50 nM, Activity of Compounds in Molecular Assay
T1 construct: histidine tag (C); made in house; host or cells: Sf9 insect cells (baculovirus coinfection)
T1 sequence (Q02108 1-690 partner): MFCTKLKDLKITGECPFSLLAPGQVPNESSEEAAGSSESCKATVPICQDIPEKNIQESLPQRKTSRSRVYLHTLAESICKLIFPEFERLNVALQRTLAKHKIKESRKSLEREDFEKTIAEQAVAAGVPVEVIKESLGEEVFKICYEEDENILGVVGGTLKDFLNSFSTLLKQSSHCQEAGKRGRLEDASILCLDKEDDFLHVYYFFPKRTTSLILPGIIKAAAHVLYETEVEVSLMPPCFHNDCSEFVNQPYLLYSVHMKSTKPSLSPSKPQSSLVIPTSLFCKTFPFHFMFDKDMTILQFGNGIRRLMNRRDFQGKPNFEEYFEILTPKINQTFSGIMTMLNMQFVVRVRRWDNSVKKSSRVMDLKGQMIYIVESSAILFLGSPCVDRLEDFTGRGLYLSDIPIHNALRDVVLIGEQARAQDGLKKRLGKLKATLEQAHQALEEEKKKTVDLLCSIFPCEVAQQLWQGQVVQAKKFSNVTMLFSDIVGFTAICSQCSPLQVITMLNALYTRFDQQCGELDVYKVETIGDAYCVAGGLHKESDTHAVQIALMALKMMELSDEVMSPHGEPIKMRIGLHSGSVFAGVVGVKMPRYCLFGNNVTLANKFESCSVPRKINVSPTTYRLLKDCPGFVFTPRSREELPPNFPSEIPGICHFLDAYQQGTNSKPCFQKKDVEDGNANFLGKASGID
T1 sequence (Q02153 1-619): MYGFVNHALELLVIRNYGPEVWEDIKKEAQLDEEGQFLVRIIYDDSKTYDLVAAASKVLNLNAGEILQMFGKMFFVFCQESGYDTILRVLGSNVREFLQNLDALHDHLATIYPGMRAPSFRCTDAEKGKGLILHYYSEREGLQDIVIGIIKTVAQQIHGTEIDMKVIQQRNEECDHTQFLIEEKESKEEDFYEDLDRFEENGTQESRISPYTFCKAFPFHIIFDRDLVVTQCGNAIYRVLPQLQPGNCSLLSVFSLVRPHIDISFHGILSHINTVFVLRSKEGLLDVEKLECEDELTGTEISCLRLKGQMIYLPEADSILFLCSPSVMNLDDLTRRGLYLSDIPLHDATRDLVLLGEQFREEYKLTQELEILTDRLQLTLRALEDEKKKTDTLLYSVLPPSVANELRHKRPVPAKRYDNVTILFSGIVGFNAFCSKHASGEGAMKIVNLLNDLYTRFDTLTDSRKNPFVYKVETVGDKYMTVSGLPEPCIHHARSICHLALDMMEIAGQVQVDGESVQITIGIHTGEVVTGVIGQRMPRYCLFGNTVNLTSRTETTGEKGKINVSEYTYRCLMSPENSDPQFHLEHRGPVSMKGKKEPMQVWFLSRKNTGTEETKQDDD
In short: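 cGMP generated over 60 min at 37° C (pH 6.8 MOPS buffer, 50 nM GTP, 1.25 mM IBMX, 1% DMSO) by 300 pM heme-free sGC, expressed in Sf9 and heme-stripped with 0.5% Tween 20. HTRF ratios converted to nM cGMP; EC50 fitted from log concentration.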

[2] = Assessment of solubility: HT solubility in pION buffer, UV spectrophotometry; settings: 16-19 h incubation, 1.0% DMSO; for solubility: pION system solution buffer, kinetic from dmso stock
[3] = pH 4.5, pH 4.5, aqueous buffer, Solubility (pH 4.5), pH 4.5 buffer
[4] = pH 7.4, pH 7.4, aqueous buffer, Solubility (pH 7.4), pH 7.4 buffer

Structure (SMILES)	EC50 [1]	solubility [2, 3]	solubility [2, 4]	Solubility (pH 4.5) ([2]; pH 4.5 buffer)
Cc1ccc(OCc2ccc(CN3CCS(=O)(=O)CC3)cc2C)c(-c2csc(N3CCC(C(=O)O)C(C(F)(F)F)C3)n2)c1 (stereo not drawn) [Compound 154]	530 nM	0.8 µg/mL (≈ 1.25 µM)	> 63 µg/mL	
Cc1ccc(OCc2ccc(CN(C)CC3CCOCC3)cc2C)c(-c2csc(N3CCC(C(=O)O)CC3)n2)c1 [Compound 96]	550 nM	> 67 µg/mL	> 67 µg/mL	
Cc1ccc(OCc2ccc(C(=O)N3CCOCC3)cc2C)c(-c2csc(N3CCC(C(=O)O)CC3)n2)c1 [Compound 49]	130 nM	13 µg/mL (≈ 24.3 µM)	> 53 µg/mL	
Cc1ccc(OCc2ccc(C(=O)N3CCCC3)cc2C#N)c(-c2csc(N3CCC(C(=O)O)CC3)n2)c1 [Compound 30, 1-[4-[2-[[2-cyano-4-(pyrrolidine-1-carbonyl)phenyl]methoxy]-5-methyl-phenyl]thiazol-2-yl]piperidine-4-carboxylic acid]	61 nM	3.1 µg/mL (≈ 5.84 µM)	> 53 µg/mL	
Cc1ccc(OCc2ccc(CNC(C)(C)CO)cc2C#N)c(-c2csc(N3CCC(C(=O)O)CC3)n2)c1 [Compound 47]	4000 nM	> 64 µg/mL	> 64 µg/mL	
Cc1cc(C(=O)N2CCCCC2)ccc1COc1ccc(Cl)cc1-c1csc(N2CC3C(C2)C3C(=O)O)n1 (stereo not drawn) [Compound 78]	550 nM	0.2 µg/mL (≈ 0.362 µM)	> 55 µg/mL	
Cc1cc(C(=O)N2CCCCC2)ccc1COc1ccccc1-c1csc(N2CC3C(C2)C3C(=O)O)n1 (stereo not drawn) [Compound 9]	680 nM	5.6 µg/mL (≈ 10.8 µM)	> 51 µg/mL	
Cc1cc(C(=O)N2CCCCC2)ccc1COc1ccc(F)cc1-c1csc(N2C3CCC2CC(C(=O)O)C3)n1 (stereo not drawn) [Compound 97]	59 nM	0.45 µg/mL (≈ 0.798 µM)	> 56 µg/mL	
COCCN(C)Cc1ccc(COc2ccc(C#N)cc2-c2csc(N3CCC(C(=O)O)CC3)n2)c(C)c1 [Compound 171]	2400 nM	34 µg/mL (≈ 63.6 µM)	36 µg/mL (≈ 67.3 µM)	
Cc1ccc(OCc2ccc(CN3CCOCC3)cc2C)c(-c2csc(N3CCC(CC(=O)O)C3)n2)c1 (stereo not drawn) [Compound 23]	3200 nM	> 56 µg/mL	> 56 µg/mL	
Cc1ccc(OCc2ccc(C(=O)N3CCCCC3)cc2C)c(-c2csc(C3=CCC(C(=O)O)CC3)n2)c1 (stereo not drawn) [Compound 32]	310 nM	0.15 µg/mL (≈ 0.283 µM)	29 µg/mL (≈ 54.6 µM)	
Cc1ccc(OCc2ccc(CN3CCOCC3)cc2C)c(-c2csc(N3CC4C(C3)C4C(=O)O)n2)c1 (stereo not drawn) [Compound 14]	4700 nM	> 63 µg/mL	> 63 µg/mL	
Cc1cc(CN2CCOCC2)ccc1COc1c(Cl)cccc1-c1csc(N2CCC(C(=O)O)CC2)n1 [Compound 62]	22 nM	30 µg/mL (≈ 55.3 µM)	> 65 µg/mL	
Cc1ccc(OCc2ccc(C(=O)N3CCCCC3)cc2C)c(-c2csc(N3CCC(C(=O)O)CC3C)n2)c1 (stereo not drawn) [Compound 73]	7.6 nM	1.9 µg/mL (≈ 3.47 µM)	> 54 µg/mL	
Cc1cc(CN2CCS(=O)(=O)CC2)ccc1COc1c(C)cccc1-c1csc(N2CCC(C(=O)O)CC2)n1 [Compound 105]	37 nM	8.9 µg/mL (≈ 15.6 µM)	> 56 µg/mL	
Cc1cc(C(=O)N2CCCCC2)ccc1COc1ccccc1-c1csc([C@H]2CC[C@H](C(=O)O)CC2)n1 [Compound 12]	4000 nM		> 51 µg/mL	0.1 μg/mL
Cc1cc(C(=O)N2CCCCC2)ccc1COc1ccccc1-c1csc(N2C3CCC2CC(C(=O)O)C3)n1 (stereo not drawn) [Compound 68]	43 nM	1.2 µg/mL (≈ 2.2 µM)	> 54 µg/mL	
Cc1cc(CN2CCOCC2)ccc1COc1ccc(C#N)cc1-c1csc(N2CC3CCC(C2)C3C(=O)O)n1 (stereo not drawn) [Compound 86]	7100 nM	3.5 µg/mL (≈ 6.26 µM)	5.7 µg/mL (≈ 10.2 µM)	
Cc1ccc(OCc2ccc(CN3CCOCC3)cc2C)c(-c2csc(N3CC[C@@H](C(=O)O)C3)n2)c1 (single isomer, unassigned) [Compound 5, R-1-{4-[5-methyl-2-(2-methyl-4-morpholin-4-ylmethyl-benzyloxy)-phenyl]-thiazol-2-yl}-pyrrolidine-3-carboxylic acid]	2000 nM	37 µg/mL (≈ 72.9 µM)	40 µg/mL (≈ 78.8 µM)	
Cc1ccc(OCc2ccc(C(=O)N3CCCCC3)cc2C)c(-c2csc([C@H]3CC[C@H](C(=O)O)CC3)n2)c1 [Compound 38]	1700 nM	0.25 µg/mL (≈ 0.469 µM)	> 53 µg/mL	
Cc1cc(CN2CCOCC2)ccc1COc1ccc(F)cc1-c1csc(N2C3CCC2CC(C(=O)O)C3)n1 (stereo not drawn) [Compound 80]	740 nM	> 62 µg/mL	> 62 µg/mL	
Cc1cc(C(=O)N2CCCCC2)ccc1COc1ccc(F)cc1-c1csc(C2=CCC(C(=O)O)CC2)n1 (stereo not drawn) [Compound 48]	360 nM		27 µg/mL (≈ 50.5 µM)	0.1 μg/mL
Cc1ccc(OCc2ccc(CN3CCS(=O)(=O)CC3)cc2C)c(-c2csc(N3CCC(C(=O)O)CC3)n2)c1 [Compound 104]	19 nM	0.35 µg/mL (≈ 0.614 µM)	> 68 µg/mL	
Cc1cc(C(=O)N2CCCCC2)ccc1COc1ccccc1-c1csc(N2CCC(C(=O)O)CC2C(F)(F)F)n1 (stereo not drawn) [Compound 130]	30 nM	0.3 µg/mL (≈ 0.51 µM)	> 58 µg/mL	
Cc1ccc(OCc2ccc(CN3CCC(S(C)(=O)=O)CC3)cc2C)c(-c2csc(N3CCC(C(=O)O)CC3)n2)c1 [Compound 138]	180 nM	> 70 µg/mL	> 70 µg/mL	
Cc1cc(CN2CCS(=O)(=O)CC2)ccc1COc1ccccc1-c1csc(N2CCC(C(=O)O)C(C(F)(F)F)C2)n1 (stereo not drawn) [Compound 150]	1200 nM	1.4 µg/mL (≈ 2.24 µM)	> 62 µg/mL	
Cc1ccc(OCc2ccc(C(=O)N(C)CC3CCCCC3)cc2C#N)c(-c2csc(N3CCC(C(=O)O)CC3)n2)c1 [Compound 125]	74 nM		14 µg/mL (≈ 23.9 µM)	0.1 μg/mL
Cc1cc(CN2CCS(=O)(=O)CC2)ccc1COc1ccc(F)cc1-c1csc(N2CCC(C(=O)O)C(C)C2)n1 (stereo not drawn) [Compound 129]	89 nM	0.15 µg/mL (≈ 0.255 µM)	> 58 µg/mL	
Cc1cc(CN2CCS(=O)(=O)CC2)ccc1COc1ccc(C#N)cc1-c1csc(N2CCC(C(=O)O)C(C)C2)n1 (stereo not drawn) [Compound 135]	2700 nM	0.45 µg/mL (≈ 0.757 µM)	> 59 µg/mL	
